This note sets out measurements from paper PMC2751816, “Functional, Non-Clonal IgM^a-Restricted B Cell Receptor Interactions with the HIV-1 Envelope gp41 Membrane Proximal External Region” (PLoS ONE, 2009).

The test system of assay [1] is BALB/c B cells (gp41 MPER tetramer binding). As to the kind of experiment: Cold inhibition of APC-labeled gp41 MPER tetramer binding by unlabeled tetramers. The note with it: unlabeled competitor tetramer pre-incubated; Fig. 4A,B; average of three experiments (4B). In kind it is cell-based, mouse (BALB/c). As to the method:
FACS staining of single cell suspensions (≥2×10^6) was conducted using pre-mixed combinations of fluorochrome-labeled Abs and APC-conjugated B cell tetramers at empirically-determined optimal concentrations. All Abs were from BD unless otherwise stated. Primary antibodies used were: PerCP anti-B220, FITC anti-IgD, FITC, PE or PE-Cy7 anti-IgM, PE anti-CD5, FITC anti-CD11b, PE-Cy7 anti-CD19, FITC anti-CD21, PE-Cy7 anti-CD23 (eBiosciences), and PE-Cy7 anti-CD93 (eBiosciences). Other reagents included biotinylated Abs against dump channel markers: Thy1 (Abcam), F4/80 (Abcam), CD11c, Gr-1, TER-119, and NK-1.1, secondary staining SA-Texas Red conjugate; v-amine live/dead violet dye (Molecular Probes), and Fc block (anti-CD16/32).
Staining was conducted at 4°C in several sequential steps in FACS staining buffer (1X PBS with 2% FCS, 0.1% NaN3), washing twice between steps. Cells were first incubated with v-amine live/dead dye for 15 min, then stained with APC-labeled tetramers for 30 min (and in some experiments, cold tetramer was incubated at 10 fold molar excess for 1 h, prior to staining with APC-labeled tetramers). Cells were then stained with Fc block, followed by incubation with combinations of primary Abs, and secondary staining with SA-Texas Red, each for 30 min. Data (≥2.5×10^5 events/sample) were acquired using an LSRII flow cytometer and Cell Quest software (BD Immunocytometry systems). FACS Analysis was performed using FlowJo software (Tree Star). For analysis, cells were gated in the following order: single cells were gated based on fsc height vs. fsc area+ssc height vs. ssc profiles, lymphocytes were gated on fsc and ssc profile, residual dead cells were excluded by negative gating with v-amine live/dead dye, and irrelevant non-B cells were excluded by negative gating with dump markers.

The target of assay [2] is gp41 MPER peptide (nominal 2F5 epitope of the HIV-1 gp41 membrane proximal external region), N-biotinylated (HIV-1). As to the kind of experiment: SPR; monomeric or F(ab)2 IgM fragments injected over biotinylated peptides anchored to a SA-coated sensor chip; BIAcore 3000, BIAevaluation 4.1. Background: Surface plasmon resonance follows binding to a sensor surface in real time, without labels.

For the substance “DWEYSLWLSN [dsDNA tetramers, double-stranded DNA (dsDNA) mimic tetramer made from the R4A peptide […], reference compound]”, the “inhibition of APC-labeled gp41 MPER tetramer binding (in words)” value in assay [1] was “minimal competition with gp41 MPER binding”.
One may read the Kd as the concentration at which binding is half-saturated. High values mean a looser complex, low ones a tighter complex. In assay [2], “monomeric IgM^a fragment of the purified mouse TNP-KLH-specific IgM^a mAb, BD clone G155-228 (antibody)” had a Kd of 276 nM.
